Test results reported in the supplement of paper PMC10307832.

Key:
Test in all cases: relative viability (nuclei count vs DMSO), 5 days (fraction); higher = more cells survive
NCI-H1651 = tested on: NCI-H1651
Procedure, shortened: (§1)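 Relative viability is defined as nuclei in treated wells over nuclei in vehicle wells. Duplicate plates were run and medians reported. Lung cancer cell lines in 1536-well plates were dosed by pin tool one day after seeding, with one drug or with a fixed anchor-drug dose plus five library-drug doses (not always all listed) in √10 steps, and nuclei were counted after 5 days.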

NCI-H1355 = tested on: NCI-H1355
Procedure, shortened: as §1

LOU-NH91 = tested on: LOU-NH91
Procedure, shortened: as §1

201T = tested on: 201T
Procedure, shortened: as §1

NCI-H322M = tested on: NCI-H322M
Procedure, shortened: as §1

NCI-H1395 = tested on: NCI-H1395
Procedure, shortened: as §1

HOP-62 = tested on: HOP-62
Procedure, shortened: as §1

NCI-H650 = tested on: NCI-H650
Procedure, shortened: as §1

NCI-H1563 = tested on: NCI-H1563
Procedure, shortened: as §1

BEN = tested on: BEN
Procedure, shortened: as §1

NCI-H1944 = tested on: NCI-H1944
Procedure, shortened: as §1

NCI-H1793 = tested on: NCI-H1793
Procedure, shortened: as §1

HCC-78 = tested on: HCC-78
Procedure, shortened: as §1

LCLC-97TM1 = tested on: LCLC-97TM1
Procedure, shortened: as §1

NCI-H2126 = tested on: NCI-H2126
Procedure, shortened: as §1

NCI-H2347 = tested on: NCI-H2347
Procedure, shortened: as §1

NCI-H441 = tested on: NCI-H441
Procedure, shortened: as §1

NCI-H838 = tested on: NCI-H838
Procedure, shortened: as §1

CAL-12T = tested on: CAL-12T
Procedure, shortened: as §1

SW 1573 = tested on: SW 1573
Procedure, shortened: as §1

NCI-H3122 = tested on: NCI-H3122
Procedure, shortened: as §1

SK-LU-1 = tested on: SK-LU-1
Procedure, shortened: as §1

NCI-H1915 = tested on: NCI-H1915
Procedure, shortened: as §1

CCNC(=O)c1noc(-c2cc(C(C)C)c(O)cc2O)c1-c1ccc(CN2CCOCC2)cc1 [Luminespib] + CS(=O)(=O)N1CCN(Cc2cc3nc(-c4cccc5[nH]ncc45)nc(N4CCOCC4)c3s2)CC1 [Pictilisib] (partner 1 µM)
relative viability (NCI-H1651; first compound 0.002 µM): 0.592 | relative viability (NCI-H1651; first compound 0.006325 µM): 0.608 | relative viability (NCI-H1651; first compound 0.02 µM): 0.403 | relative viability (NCI-H1651; first compound 0.06325 µM): 0.136 | relative viability (NCI-H1651; first compound 0.2 µM): 0.162 | relative viability (NCI-H1355; first compound 0.002 µM): 0.411 | relative viability (NCI-H1355; first compound 0.006325 µM): 0.458 | relative viability (NCI-H1355; first compound 0.02 µM): 0.255 | relative viability (NCI-H1355; first compound 0.06325 µM): 0.143 | relative viability (NCI-H1355; first compound 0.2 µM): 0.152 | relative viability (LOU-NH91; first compound 0.002 µM): 0.53 | relative viability (LOU-NH91; first compound 0.006325 µM): 0.566 | relative viability (LOU-NH91; first compound 0.02 µM): 0.469 | relative viability (LOU-NH91; first compound 0.06325 µM): 0.367 | relative viability (LOU-NH91; first compound 0.2 µM): 0.358 | relative viability (201T; first compound 0.002 µM): 0.647 | relative viability (201T; first compound 0.006325 µM): 0.693 | relative viability (201T; first compound 0.02 µM): 0.649 | relative viability (201T; first compound 0.06325 µM): 0.721 | relative viability (201T; first compound 0.2 µM): 0.58 | relative viability (NCI-H322M; first compound 0.002 µM): 0.497 | relative viability (NCI-H322M; first compound 0.006325 µM): 0.525 | relative viability (NCI-H322M; first compound 0.02 µM): 0.447 | relative viability (NCI-H322M; first compound 0.06325 µM): 0.485 | relative viability (NCI-H322M; first compound 0.2 µM): 0.3 | relative viability (NCI-H1395; first compound 0.002 µM): 0.684 | relative viability (NCI-H1395; first compound 0.006325 µM): 0.725 | relative viability (NCI-H1395; first compound 0.02 µM): 0.429 | relative viability (NCI-H1395; first compound 0.06325 µM): 0.326 | relative viability (NCI-H1395; first compound 0.2 µM): 0.377 | relative viability (HOP-62; first compound 0.002 µM): 0.678 | relative viability (HOP-62; first compound 0.006325 µM): 0.838 | relative viability (HOP-62; first compound 0.02 µM): 0.43 | relative viability (HOP-62; first compound 0.06325 µM): 0.164 | relative viability (HOP-62; first compound 0.2 µM): 0.0784 | relative viability (NCI-H650; first compound 0.002 µM): 1.09 | relative viability (NCI-H650; first compound 0.006325 µM): 0.851 | relative viability (NCI-H650; first compound 0.02 µM): 0.477 | relative viability (NCI-H650; first compound 0.06325 µM): 0.209 | relative viability (NCI-H650; first compound 0.2 µM): 0.127 | relative viability (NCI-H1563; first compound 0.002 µM): 0.721 | relative viability (NCI-H1563; first compound 0.006325 µM): 0.605 | relative viability (NCI-H1563; first compound 0.02 µM): 0.616 | relative viability (NCI-H1563; first compound 0.06325 µM): 0.525 | relative viability (NCI-H1563; first compound 0.2 µM): 0.551 | relative viability (BEN; first compound 0.002 µM): 0.514 | relative viability (BEN; first compound 0.006325 µM): 0.597 | relative viability (BEN; first compound 0.02 µM): 0.332 | relative viability (BEN; first compound 0.06325 µM): 0.266 | relative viability (BEN; first compound 0.2 µM): 0.191 | relative viability (NCI-H1944; first compound 0.002 µM): 0.337 | relative viability (NCI-H1944; first compound 0.006325 µM): 0.258 | relative viability (NCI-H1944; first compound 0.02 µM): 0.262 | relative viability (NCI-H1944; first compound 0.06325 µM): 0.28 | relative viability (NCI-H1944; first compound 0.2 µM): 0.22 | relative viability (NCI-H1793; first compound 0.002 µM): 0.313 | relative viability (NCI-H1793; first compound 0.006325 µM): 0.342 | relative viability (NCI-H1793; first compound 0.02 µM): 0.12 | relative viability (NCI-H1793; first compound 0.06325 µM): 0.168 | relative viability (NCI-H1793; first compound 0.2 µM): 0.194 | relative viability (HCC-78; first compound 0.002 µM): 0.204 | relative viability (HCC-78; first compound 0.06325 µM): 0.267 | relative viability (HCC-78; first compound 0.2 µM): 0.279 | relative viability (LCLC-97TM1; first compound 0.002 µM): 0.17 | relative viability (LCLC-97TM1; first compound 0.006325 µM): 0.223 | relative viability (LCLC-97TM1; first compound 0.02 µM): 0.113 | relative viability (LCLC-97TM1; first compound 0.06325 µM): 0.103 | relative viability (LCLC-97TM1; first compound 0.2 µM): 0.0923 | relative viability (NCI-H2126; first compound 0.002 µM): 0.464 | relative viability (NCI-H2126; first compound 0.006325 µM): 0.503 | relative viability (NCI-H2126; first compound 0.02 µM): 0.399 | relative viability (NCI-H2126; first compound 0.06325 µM): 0.49 | relative viability (NCI-H2126; first compound 0.2 µM): 0.273 | relative viability (NCI-H2347; first compound 0.002 µM): 0.751 | relative viability (NCI-H2347; first compound 0.006325 µM): 0.609 | relative viability (NCI-H2347; first compound 0.02 µM): 0.45 | relative viability (NCI-H2347; first compound 0.06325 µM): 0.54 | relative viability (NCI-H2347; first compound 0.2 µM): 0.4 | relative viability (NCI-H441; first compound 0.002 µM): 0.479 | relative viability (NCI-H441; first compound 0.006325 µM): 0.513 | relative viability (NCI-H441; first compound 0.02 µM): 0.425 | relative viability (NCI-H441; first compound 0.06325 µM): 0.104 | relative viability (NCI-H441; first compound 0.2 µM): 0.0836 | relative viability (NCI-H838; first compound 0.002 µM): 0.48 | relative viability (NCI-H838; first compound 0.006325 µM): 0.441 | relative viability (NCI-H838; first compound 0.02 µM): 0.223 | relative viability (NCI-H838; first compound 0.06325 µM): 0.117 | relative viability (NCI-H838; first compound 0.2 µM): 0.111 | relative viability (CAL-12T; first compound 0.002 µM): 0.336 | relative viability (CAL-12T; first compound 0.006325 µM): 0.395 | relative viability (CAL-12T; first compound 0.02 µM): 0.25 | relative viability (CAL-12T; first compound 0.06325 µM): 0.111 | relative viability (CAL-12T; first compound 0.2 µM): 0.143 | relative viability (SW 1573; first compound 0.002 µM): 0.508 | relative viability (SW 1573; first compound 0.006325 µM): 0.619 | relative viability (SW 1573; first compound 0.02 µM): 0.428 | relative viability (SW 1573; first compound 0.06325 µM): 0.145 | relative viability (SW 1573; first compound 0.2 µM): 0.105 | relative viability (NCI-H3122; first compound 0.002 µM): 0.621 | relative viability (NCI-H3122; first compound 0.006325 µM): 0.621 | relative viability (NCI-H3122; first compound 0.02 µM): 0.368 | relative viability (NCI-H3122; first compound 0.06325 µM): 0.166 | relative viability (NCI-H3122; first compound 0.2 µM): 0.176 | relative viability (SK-LU-1; first compound 0.002 µM): 0.582 | relative viability (SK-LU-1; first compound 0.006325 µM): 0.403 | relative viability (SK-LU-1; first compound 0.02 µM): 0.243 | relative viability (SK-LU-1; first compound 0.06325 µM): 0.161 | relative viability (SK-LU-1; first compound 0.2 µM): 0.121 | relative viability (NCI-H1915; first compound 0.002 µM): 0.939 | relative viability (NCI-H1915; first compound 0.006325 µM): 0.729 | relative viability (NCI-H1915; first compound 0.02 µM): 0.567 | relative viability (NCI-H1915; first compound 0.06325 µM): 0.827 | relative viability (NCI-H1915; first compound 0.2 µM): 0.062
